Experimental findings from patent US7034056B2, “Aryl and biaryl compounds having MCH modulatory activity” (Pharmacopeia Drug Discovery, inc., priority 2001, dated 2006) are described below.

SMILES strings stand for the structures.

T1 sequence (Q99705 whole entry): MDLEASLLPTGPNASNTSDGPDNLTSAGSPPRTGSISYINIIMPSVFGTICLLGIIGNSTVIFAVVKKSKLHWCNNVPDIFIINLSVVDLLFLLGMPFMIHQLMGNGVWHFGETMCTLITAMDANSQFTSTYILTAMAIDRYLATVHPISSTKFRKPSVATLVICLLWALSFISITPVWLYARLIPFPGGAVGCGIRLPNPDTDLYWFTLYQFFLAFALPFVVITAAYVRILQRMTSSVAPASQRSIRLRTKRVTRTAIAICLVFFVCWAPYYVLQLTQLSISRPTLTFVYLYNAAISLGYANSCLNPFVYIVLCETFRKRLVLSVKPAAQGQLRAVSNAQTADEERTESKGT

One assay addresses T1, hMCHR (MCH receptor) (Homo sapiens, UniProt Q99705).
T1 construct: (or internally produced); host or cells: CHO (Chinese hamster ovary) cells, membrane preparation
The experiment in a line: MCH Assay PCOP Protocol ([125I]-MCH SPA binding to hMCHR-CHO membranes).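 For Activity (Ki range): A 0.4–50 nM B 51–500 nM C 501–2500 nM.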 The following applies: [125I]-MCH 0.5 nM, hMCHR-CHO membranes; read-out: Activity (ranges of Ki values). The protocol: A reaction mixture of 10 μg hMCHR-CHO overexpressing membranes (from Receptor Biology, Inc., Beltsville, Md., or internally produced) and 100 μg/well WGA-SPA beads (from Amersham Pharmacia Biotech, Inc., Piscataway, N.J.)/100 μl was prepared in MCHR assay buffer (25 mM HEPES, pH 7.4, 10 mM NaCl, 10 mM MgCl2, 5 mM MnCl2, 0.1% BSA). […] The assay plates were shaken for 5 minutes on a plate shaker, then incubated for 2 hours before cpm/well were determined in a Microbeta Trilux counter (from PerkinElmer Wallac, Inc., Gaithersburg, Md.).
What is called Ki is the dissociation constant of the complex between target and ligand, obtained from inhibition or displacement. `CS(=O)(=O)NC1CCN(CCC(CNC(=O)Nc2cc(Cl)cc(Cl)c2)c2ccc(-c3cccc(C#N)c3)cc2)CC1` (racemic) [Example 29, (R,S)-N-(1-{3-(3′-Cyano-biphenyl-4-yl)-4-[3-(3,5-dichloro-phenyl)-ureido]-butyl}-piperidin-4-yl)methane-sulfonamide]: the Ki lay in the range of 501 to 2500 nM. With `CN(C)CCC(CNC(=O)c1ccc(F)c(F)c1)c1ccc(-c2cccc(C#N)c2)cc1` (stereo not shown) [Example 67], the Ki lay within 51 to 500 nM. For the compound `CN(C)CCCNCCC(CNC(=O)Nc1cc(Cl)cc(Cl)c1)c1ccc(Cl)cc1` (stereo not shown) [Example 112], the Ki is 501 to 2500 nM. The same measure, in the same setting: the result for `CC(=O)NC1CCN(CCC(CNC(=O)Nc2cc(Cl)cc(Cl)c2)c2ccc(C)cc2)CC1` (stereo not shown) [Example 206] reads 501 to 2500 nM.

Regarding `N#Cc1cccc(-c2ccc(C(CCNC3CC3)CNC(=O)c3ccc(F)c(F)c3)cc2)c1` (stereo not shown) [Example 68], the Ki lay in the range of 51 to 500 nM. For the compound `CNCCC(CNC(=O)c1cc(F)cc(F)c1)c1ccc(-c2cccc(C#N)c2)cc1` (stereo not shown) [Example 70], the Ki fell in the range of 51 to 500 nM. As for `CN(C)CCCNCCC(CNC(=O)Nc1cc(Cl)cc(Cl)c1)c1cccc(-c2ccccc2Cl)c1` (stereo not shown) [Example 176], the Ki lay in the range of 501 to 2500 nM. Still for that read-out and setting: the result for `O=C(NCC(CCNC1CCCC1)c1ccc2c(c1)OCO2)Nc1ccc(Cl)c([N+](=O)[O-])c1` (stereo not shown) [Example 104] reads 51 to 500 nM; that for `CN(C)CCCNCCC(CNC(=O)Nc1cc(Cl)cc(Cl)c1)c1ccc(-c2c(F)cccc2F)cc1` (stereo not shown) [Example 102], 501 to 2500 nM.

In the case of `COc1ccc(-c2cccc(C(CCNCCCN(C)C)CNC(=O)Nc3cc(Cl)cc(Cl)c3)c2)cc1` (stereo not shown) [Example 154], the Ki lay within 51 to 500 nM. On the same count and under the same terms, then `O=C(NCC(CCNC1CCCC1)c1ccc(-c2cc[n+]([O-])cc2)cc1)Nc1cc(Cl)cc(Cl)c1` (stereo not shown) [Example 37], with 0.4 to 50 nM; and `O=C(NCC(CCNC1CCCC1)c1cccc(-c2ccc(Cl)cc2)c1)Nc1cc(Cl)cc(Cl)c1` (stereo not shown) [Example 152], with 51 to 500 nM; and `COCC(=O)NC1CCN(CCC(CNC(=O)Nc2cc(Cl)cc(Cl)c2)c2ccc(C)cc2)CC1` (stereo not shown) [Example 213], with 501 to 2500 nM. Regarding `CS(=O)(=O)NC1CCN(CCC(CNC(=O)Nc2cc(Cl)cc(Cl)c2)c2ccc(Cl)cc2)C1` (stereo not shown) [Example 204], the Ki lay within 501 to 2500 nM. Still for that read-out and setting: the result for `Cc1ccc(-c2cccc(C(CCNCCCN(C)C)CNC(=O)Nc3cc(Cl)cc(Cl)c3)c2)cc1` (stereo not shown) [Example 162] reads 501 to 2500 nM. Still for that read-out and setting: the result for `O=C(NCC(CCNC1CCCC1)c1cccc(-c2ccc(F)c(Cl)c2)c1)Nc1cc(Cl)cc(Cl)c1` (stereo not shown) [Example 159] reads 51 to 500 nM; that for `Cc1ccc(C(CCNC2CCCC2)CNC(=O)Nc2cccc(Br)c2)cc1` (stereo not shown) [Example 143], 501 to 2500 nM.

For `Cc1ccc(C(CCNCCCN(C)C)CNC(=O)Nc2cc(Cl)cc(Cl)c2)cc1C` (stereo not shown) [Example 118], the Ki is 501 to 2500 nM. Consider `CN(C)CCC(OC(=O)Nc1cc(Cl)cc(Cl)c1)c1ccc(-c2ccncc2)cc1` (stereo not shown) [Example 33, (3,5-Dichloro-phenyl)-carbamic acid 3-dimethylamino-1-(4-pyridin-4-yl-phenyl)-propyl ester], for which the Ki is 501 to 2500 nM. Same read-out and setting: then `COc1ccccc1-c1cccc(C(CCNCCCN(C)C)CNC(=O)Nc2cc(Cl)cc(Cl)c2)c1` (stereo not shown) [Example 174], with 501 to 2500 nM; and `O=C(NCC(CCNC1CCCC1)c1cccc(-c2cccc(F)c2)c1)Nc1cc(Cl)cc(Cl)c1` (stereo not shown) [Example 156], with 51 to 500 nM. Still for that read-out and setting: the result for `CN(C)CCCNCCC(CNC(=O)Nc1cc(Cl)cc(Cl)c1)c1cccc(-c2cccc(C#N)c2)c1` (stereo not shown) [Example 169] reads 501 to 2500 nM; that for `CN(C)CCC(CNC(=O)Nc1cc(Cl)cc(Cl)c1)c1ccc(-c2cccnc2)cc1` (stereo not shown) [Example 36], 0.4 to 50 nM. Take `CNCCC(CNC(=O)Nc1ccc(Cl)cc1)c1ccc(-c2cccc(C#N)c2)cc1` (stereo not shown) [Example 64]: the Ki lay in the range of 0.4 to 50 nM. Consider `Cc1ccc(C(CCN2CCC(NC(=O)C3CCC3)CC2)CNC(=O)Nc2cc(Cl)cc(Cl)c2)cc1` (stereo not shown) [Example 187], for which the Ki is 51 to 500 nM.

For the compound `N#Cc1cccc(-c2ccc(C(CCNC3CC3)CNC(=O)Nc3cccc(Cl)c3)cc2)c1` (stereo not shown) [Example 43], the Ki lay within 0.4 to 50 nM. Still for that read-out and setting: the result for `O=C(NCC(CCN1CCC(NC(=O)c2cccs2)C1)c1ccc(Cl)c(Cl)c1)Nc1cc(Cl)cc(Cl)c1` (stereo not shown) [Example 190] reads 51 to 500 nM.

Still in this assay, the particulars now being: [125I]-MCH SPA binding, hMCHR-CHO membranes; Ki class ranges; read-out: Activity (range of Ki).
With `O=C(NCC(CCNCCc1ccc(O)cc1)c1ccc(Cl)c(Cl)c1)Nc1cc(C(F)(F)F)cc(C(F)(F)F)c1` (stereo not shown) [Example 426], the Ki lay in the range of 501 to 2500 nM.

For the compound `O=C(NCC(CCN1CCC(O)C1)c1ccc(Cl)c(Cl)c1)Nc1cc(C(F)(F)F)cc(C(F)(F)F)c1` (stereo not shown) [Example 427], the Ki was 501 to 2500 nM. Still for that read-out and setting: the result for `O=C(NCC(CCN1CCCC1CN1CCCC1)c1ccc(Cl)c(Cl)c1)Nc1cc(C(F)(F)F)cc(C(F)(F)F)c1` (stereo not shown) [Example 430] reads 501 to 2500 nM. Regarding `O=C(NCC(CCN1CCCCC1)c1ccc(Cl)c(Cl)c1)c1cc(Cl)cc(Cl)c1` (stereo not shown) [Example 446], the Ki is 501 to 2500 nM.

`CCCCN(CCC(CNC(=O)Nc1cc(C(F)(F)F)cc(C(F)(F)F)c1)c1ccc(Cl)c(Cl)c1)C1CC1` (stereo not shown) [Example 440]: the Ki lay within 501 to 2500 nM. The same measure, in the same setting: the result for `O=C(NCC(CCNCC1CCCO1)c1ccc(Cl)c(Cl)c1)Nc1cc(C(F)(F)F)cc(C(F)(F)F)c1` (stereo not shown) [Example 431] reads 501 to 2500 nM; that for `O=C(NCC(CCN1CCCCC1)c1ccc(Cl)c(Cl)c1)c1ccc(F)cc1` (stereo not shown) [Example 455], 501 to 2500 nM.

Still in this assay, the particulars now being: [125I]-MCH binding to hMCHR-CHO membranes; class symbols for ranges of Ki; read-out: Activity (Ki range).
On to `CC1CCN(CCC(C(=O)NCc2cc(C(F)(F)F)cc(C(F)(F)F)c2)c2ccc(Cl)c(Cl)c2)CC1` (stereo not shown) [Example 382], for which the Ki lay in the range of 501 to 2500 nM. As for `O=C(NCC(CCNC1CCCC1)c1ccc(Cl)c(Cl)c1)Nc1ccc(Cl)c(Cl)c1` (stereo not shown) [Example 279], the Ki lay in the range of 51 to 500 nM. The same measure, in the same setting: the result for `Cn1cnc(CCNCCC(CNC(=O)Nc2cc(Cl)cc(Cl)c2)c2ccc(Cl)c(Cl)c2)c1` (stereo not shown) [Example 297] reads 501 to 2500 nM. Still for that read-out and setting: then `COc1ccc(-c2ccc(C(CCNCCCN(C)C)CNC(=O)Nc3cc(Cl)cc(Cl)c3)cc2)c(OC)c1` (stereo not shown) [Example 239], with 51 to 500 nM. Still for that read-out and setting: the result for `O=C(NCc1cc(C(F)(F)F)cc(C(F)(F)F)c1)C(CCN1CCC(O)(c2ccc(Cl)cc2)CC1)c1ccc(Cl)c(Cl)c1` (stereo not shown) [Example 390] reads 501 to 2500 nM; that for `O=C(NCC(CCNC1CCCC1)c1ccc(-c2ccc(F)c(Cl)c2)cc1)Nc1cc(Cl)cc(Cl)c1` (stereo not shown) [Example 226], 51 to 500 nM. In the case of `O=C(NCC(CCN1CCC(CNC2(CO)CCCC2)CC1)c1ccc(Cl)c(Cl)c1)c1cc(C(F)(F)F)cc(C(F)(F)F)c1` (stereo not shown) [Example 416], the Ki fell in the range of 501 to 2500 nM. On the same count and under the same terms, the result for `O=C(NCC(CCN1CCC(N2CCCCC2)CC1)c1ccc(Cl)c(Cl)c1)Nc1ccc([N+](=O)[O-])c(Cl)c1` (stereo not shown) [Example 286] reads 51 to 500 nM; that for `Cc1ccc(C(CCN2CCCCC2)CNC(=O)Nc2cc(C)cc(C)c2)cc1` (stereo not shown) [Example 355], 501 to 2500 nM. Turning to `CN(C)C1CCN(CCC(CNC(=O)Nc2cc(Cl)cc(Cl)c2)c2ccc(Cl)c(Cl)c2)C1` (stereo not shown) [Example 292], the Ki was in the range of 51 to 500 nM. On the same count and under the same terms, the result for `COc1ccc2[nH]cc(CCNCCC(CNC(=O)c3cc(C(F)(F)F)cc(C(F)(F)F)c3)c3ccc(Cl)c(Cl)c3)c2c1` (stereo not shown) [Example 396] reads 501 to 2500 nM; that for `O=C(NCC(CCNC1CCC1)c1ccc(Cl)c(Cl)c1)Nc1ccc(F)c(Cl)c1` (stereo not shown) [Example 263], 501 to 2500 nM. Same read-out and setting: the result for `O=C(NCC(CCN1CCC(N2CCCCC2)CC1)c1ccc(Cl)c(Cl)c1)Nc1ccc(OC(F)(F)F)cc1` (stereo not shown) [Example 362] reads 501 to 2500 nM; that for `O=C(NCC(CCN1CCC(N2CCCCC2)CC1)c1ccc(Cl)c(Cl)c1)Nc1cccc(Br)c1` (stereo not shown) [Example 312], 51 to 500 nM.

As to `O=C(NCc1ccc(F)c(F)c1)NCC(CCN1CCC(N2CCCCC2)CC1)c1ccc(Cl)c(Cl)c1` (stereo not shown) [Example 258], the Ki lay within 51 to 500 nM. The same measure, in the same setting: the result for `O=C(NCC(CCNC1CCCC1)c1ccc(-c2cccc(C(=O)O)c2)cc1)Nc1cc(Cl)cc(Cl)c1` (stereo not shown) [Example 248] reads 51 to 500 nM. Consider `CN(C)CCCNCCC(CNC(=O)Nc1cc(Cl)cc(Cl)c1)c1ccc(-c2cccc(C#N)c2)cc1` (stereo not shown) [Example 218], for which the Ki fell in the range of 0.4 to 50 nM. In the case of `O=C(NCC(CCNC1CCCC1)c1ccc(-c2ccc(F)cc2)cc1)Nc1cc(Cl)cc(Cl)c1` (stereo not shown) [Example 243], the Ki lay within 51 to 500 nM. As to `O=C(NCC(CCNC1CCC1)c1ccc(Cl)c(Cl)c1)Nc1ccc(F)c(F)c1` (stereo not shown) [Example 265], the Ki lay in the range of 501 to 2500 nM. Same read-out and setting: the result for `COc1cc(-c2ccc(C(CCNCCCN(C)C)CNC(=O)Nc3cc(Cl)cc(Cl)c3)cc2)cc(OC)c1OC` (stereo not shown) [Example 257] reads 501 to 2500 nM. Same read-out and setting: then `CN1CCCC1CCNCCC(CNC(=O)Nc1ccc(Cl)c(Cl)c1)c1ccc(Cl)c(Cl)c1` (stereo not shown) [Example 298], with 501 to 2500 nM; and `CN(C)CCCNCCC(CNC(=O)Nc1cc(C(F)(F)F)cc(C(F)(F)F)c1)c1cccc(Cl)c1` (stereo not shown) [Example 344], with 501 to 2500 nM. Same read-out and setting: the result for `O=C(NCC(CCNCCc1ccc(O)cc1)c1ccc(Cl)c(Cl)c1)Nc1ccc(Cl)c(Cl)c1` (stereo not shown) [Example 278] reads 51 to 500 nM; that for `O=C(NCC(CCNCc1ccc2c(c1)OCO2)c1ccc(Cl)c(Cl)c1)Nc1cc(Cl)cc(Cl)c1` (stereo not shown) [Example 295], 501 to 2500 nM; that for `O=C(NCC(CCN1CCNCC1)c1ccc(Cl)c(Cl)c1)Nc1cc(C(F)(F)F)cc(C(F)(F)F)c1` (stereo not shown) [Example 371], 501 to 2500 nM. Consider `CCCN(CC)CCC(CNC(=O)Nc1ccc(Cl)c(Cl)c1)c1ccc(Cl)c(Cl)c1` (stereo not shown) [Example 289], for which the inhibition constant (Ki) is 51 to 500 nM. Still for that read-out and setting: the result for `O=C(NCC(CCN1CCC(NC(=O)c2ccno2)CC1)c1ccc(Cl)c(Cl)c1)Nc1cc(Cl)cc(Cl)c1` (stereo not shown) [Example 217] reads 501 to 2500 nM.
